Type in all cases: physicochemical
Data set [1] is described as follows: Miscibility with solvents, visual evaluation at 5 wt %. More on the design: key: ⊚: dissolves at room temperature; ◯: dissolves when heated for 5 minutes at 40° C.; Δ: dissolves under heating, but cooling precipitates crystals; X: does not dissolve. To be noted: complex added at 5 wt %. Here is the method: (§1) The miscibility of the rare earth complex with various media was evaluated as follows.
1) Miscibility with Solvents

Data set [2] in a line: Miscibility with a polymer matrix, visual evaluation. The arrangement: key to Miscibility, PMMA: ⊚: dissolves up to 30 wt %; ◯: dissolves up to 5 wt %; Δ: disperses up to 5 wt %, but there is turbidity; X: repelled at the polymer surface. Here is the method:
as §1
2) Miscibility with a Polymer Matrix
The rare earth complex serving as the sample was added in the concentrations listed with the evaluation criteria below relative to various media, and the miscibility was visually evaluated according to the following criteria. • ⊚: dissolves up to 30 wt % • ◯: dissolves up to 5 wt % • Δ: disperses up to 5 wt %, but there is turbidity • X: repelled at the polymer surface

Data set [3] in a line: Number of moles of bound water per mole of complex (TG-DTA). The conditions noted are these: for Bound water (number of moles of bound water per mole of complex): Table 1, dried samples for the ternary complexes. On the procedure: The number of moles of bound water per mole of complex was measured using a TG-DTA 2000 from MAC Science.
A 20 g quantity of Eu(PMS)3 was added to 100 mL of isopropanol, then 43 g ([…] the molar amount of the Eu(PMS)3) of triphenylphosphine oxide (hereinafter referred to as TPPO) was added, and the system was refluxed for 3 hours, and then gradually cooled. The resulting white powder was filtered off. The white powder thus obtained was washed with hot n-hexane, and recrystallized with water-methanol to obtain 44 g of Eu(PMS)3(TPPO)8 in the form of white acicular crystals (yield: 85%). The TG-DTA was measured for these crystals, and it was found from the weight reduction at 100° C. that the number of moles of bound water per mole of complex was 2.93. The IR, NMR, UV absorption characteristics, and elemental analysis results for the obtained Eu(PMS)3(TPPO)8(H2O)2.93 are given below.
Eu(PMS)3(TPPO)8(H2O)2.93 obtained by the above synthesis method was dried in vacuo for 3 hours at 140° C. and a reduced pressure of […]. TG-DTA measurement for the resulting white powder was carried out to obtain a weight reduction at 100° C. It was found from the obtained value that the number of moles of bound water per mole of complex was 0.18.

Data set [4] is described as follows: Luminescence quantum yield and luminescence intensity in solution. To be noted: acetonitrile solution; for Relative luminescence intensity: Eu 0.05 mol/L; for Luminescence quantum yield: europium ion 0.05 mol/L, excitation 465 nm, luminescence 612 nm. On the procedure:
(§2) The intensity of luminescence and the luminescence quantum yield, the quotient of dividing the number of photons emitted from a sample by the number of photons absorbed into the sample, were measured with an SS-25 from JASCO Corporation.
The luminescence quantum yield of an acetonitrile solution of the Eu(PMS)3(TPPO)8 obtained in Example 1 (europium ion concentration: 0.05 mol/L) was measured (excitation wavelength: 465 nm, maximum luminescence wavelength: 612 nm, luminescence wavelength used in measurement: 612 nm).
The solutions prepared in Examples 12 to 14 and Comparative Examples 7 to 9 and Comparative Example B were measured for luminescence intensity at the respective maximum luminescence wavelengths.
The relative luminescence intensity of the solutions used in Examples 12 to 14 and Comparative Example B: (luminescence intensity in each of Examples 12 to 14)/(luminescence intensity in Comparative Example 7) was calculated, letting 1 be the luminescence intensity in Comparative Example 7 (solution of a rare earth complex in which the ligand Z was not coordinated).
Similarly, the relative luminescence intensity in Comparative Example 9: (luminescence intensity in Comparative Example 9)/(luminescence intensity in Comparative Example 8) was calculated, letting 1 be the luminescence intensity in Comparative Example 8 (solution of a known β-diketone-type of rare earth complex in which the ligand Z was not coordinated). The relative luminescence intensity of the solution used in Comparative Example B was 1.6 times.
The luminescence quantum yield of an acetone-d6 solution of the Nd(PMS)3(TPPO)8 obtained in Example 2 (neodymium ion concentration: 0.05 mol/L) was measured (excitation wavelength: 585 nm, maximum luminescence wavelength: 1064 nm, luminescence wavelength used in measurement: 1064 nm).
The solutions prepared in Examples 15 and 16 and Comparative Examples 10 were measured for luminescence intensity at the respective maximum luminescence wavelengths. The relative luminescence intensity in Examples 15 and 16: (luminescence intensity in each of Examples 15 and 16)/(luminescence intensity in Comparative Example 10) was calculated, letting 1 be the luminescence intensity in Comparative Example 10 (rare earth complex in which the ligand Z was not coordinated).

The nature of data set [5]: Luminescence quantum yield and luminescence intensity in PMMA polymer matrix composition. The conditions noted are these: PMMA rod; for Relative luminescence intensity: Eu 0.7 wt %, relative to Eu(PMS)3 (Comparative Example 11) = 1; for Luminescence quantum yield: rare earth ion 0.7 wt %, excitation 465 nm, luminescence 612 nm. On the procedure: as §2
A 1 mL quantity of refined anhydrous methyl methacrylate (MMA), 0.5 mg of AIBN, and 148 mg (0.7 wt %) as the rare earth ion concentration) of the Eu (PMS)3 (TPPO)8 obtained in Example 1 were mixed, the mixture was transferred to a Pyrex tube, and the inside of the tube was deaerated and then sealed. By reacting for 5 hours at 60° C., the polymerization of MMA was carried out. The resulting PMMA containing Eu(PMS)3 (TPPO)8 was taken out of the Pyrex tube, and a rod-shaped polymer matrix composition was obtained.
The polymer matrix compositions prepared in Examples 17 to 19 and Comparative Example 11 were measured for luminescence intensity at the respective maximum luminescence wavelengths. The relative luminescence intensity in Examples 17 to 19: (luminescence intensity in each of Examples 17 to 19)/(luminescence intensity in Comparative Example 11) was calculated, letting 1 be the luminescence intensity in Comparative Example 11 (rare earth complex in which the ligand Z was not coordinated).
A rod-shaped polymer matrix composition containing […] was obtained in the same manner as in Example 17, except that 148 mg (rare earth ion concentration: 0.7 wt %) of the Nd(PMS)3 (TPPO)8 obtained in Example 2 was used instead of Eu(PMS)3 (TPPO)8.
The polymer matrix compositions prepared in Examples 20 and 21 and Comparative Example 12 were measured for luminescence intensity at the respective maximum luminescence wavelengths. The relative luminescence intensity in Examples 20 and 21: (luminescence intensity in each of Examples 20 and 21)/(luminescence intensity in Comparative Example 12) was calculated, letting 1 be the luminescence intensity in Comparative Example 12 (rare earth complex in which the ligand Z was not coordinated).

Where [6] appears, read: relative to Eu(HFA)3 (Comparative Example 8) = 1.
[7] abbreviates: relative to Eu(PMS)3 (Comparative Example 7) = 1.
Setting [8] is: before drying (crystals as obtained), weight reduction at 100° C.

In the case of `O=C(C=C([O-])C(F)(F)F)C(F)(F)F.O=C(C=C([O-])C(F)(F)F)C(F)(F)F.O=C(C=C([O-])C(F)(F)F)C(F)(F)F.O=P(c1ccccc1)(c1ccccc1)c1ccccc1.O=P(c1ccccc1)(c1ccccc1)c1ccccc1.[Eu+3]` [Eu(HFA)3(TPPO)2, reference compound], in data set [1], the “Miscibility, Acetone” value is listed as “⊚”; the “Miscibility, Chloroform” value is given as “◯”; the “Miscibility, Toluene” value was “◯”; the “Miscibility, Water” value is recorded as “X”. In data set [2], the “Miscibility, Epoxy resin” value is given as “◯ (dissolves up to 5 wt %)”; the “Miscibility, Nafion” value is listed as “Δ (disperses up to 5 wt %, but there is turbidity)”; the “Miscibility, PMMA” value is given as “Δ (disperses up to 5 wt %, but there is turbidity)”. Moreover, in data set [3], the “Bound water (number of moles of bound water per mole of complex)” value was found to be 0.00. In data set [4] (setting [6]), this compound had a Relative luminescence intensity of 4.6.

For `O=C(C=C([O-])C(F)(F)F)C(F)(F)F.O=C(C=C([O-])C(F)(F)F)C(F)(F)F.O=C(C=C([O-])C(F)(F)F)C(F)(F)F.[Eu+3]` [Eu(HFA)3, reference compound], in data set [1], the “Miscibility, Acetone” value is on record as “⊚”; the “Miscibility, Chloroform” value was “X”; the “Miscibility, Toluene” value was “X”; the “Miscibility, Water” value is given as “X”. In data set [2], the “Miscibility, Epoxy resin” value was “◯ (dissolves up to 5 wt %)”; the “Miscibility, Nafion” value is listed as “Δ (disperses up to 5 wt %, but there is turbidity)”; the “Miscibility, PMMA” value is “X”. The “Bound water (number of moles of bound water per mole of complex)” value in data set [3] is on record as 2.00. This compound also returned a Relative luminescence intensity in data set [4] (setting [6]) of 1.0. This compound also gave a Luminescence quantum yield in data set [4] of 8.0%.

`O=S(=O)([N-]S(=O)(=O)C(F)(F)F)C(F)(F)F.O=S(=O)([N-]S(=O)(=O)C(F)(F)F)C(F)(F)F.O=S(=O)([N-]S(=O)(=O)C(F)(F)F)C(F)(F)F.[2H]C([2H])([2H])S(=O)C([2H])([2H])[2H].[2H]C([2H])([2H])S(=O)C([2H])([2H])[2H].[2H]C([2H])([2H])S(=O)C([2H])([2H])[2H].[2H]C([2H])([2H])S(=O)C([2H])([2H])[2H].[2H]C([2H])([2H])S(=O)C([2H])([2H])[2H].[2H]C([2H])([2H])S(=O)C([2H])([2H])[2H].[2H]C([2H])([2H])S(=O)C([2H])([2H])[2H].[2H]C([2H])([2H])S(=O)C([2H])([2H])[2H].[Eu+3]` [Eu(PMS)3 (DMSO-d6)8, reference compound] displayed a Relative luminescence intensity in data set [4] (setting [7]) of 1.6. Moreover, the Luminescence quantum yield in data set [4] is 44.0%.

With `O=S(=O)([N-]S(=O)(=O)C(F)(F)F)C(F)(F)F.O=S(=O)([N-]S(=O)(=O)C(F)(F)F)C(F)(F)F.O=S(=O)([N-]S(=O)(=O)C(F)(F)F)C(F)(F)F.O=S(c1ccccc1)c1ccccc1.O=S(c1ccccc1)c1ccccc1.O=S(c1ccccc1)c1ccccc1.O=S(c1ccccc1)c1ccccc1.O=S(c1ccccc1)c1ccccc1.O=S(c1ccccc1)c1ccccc1.O=S(c1ccccc1)c1ccccc1.O=S(c1ccccc1)c1ccccc1.[Eu+3]` [Eu(PMS)3(DPSO)8], in data set [1], the “Miscibility, Acetone” value is recorded as “⊚”; the “Miscibility, Chloroform” value is “◯”; the “Miscibility, Toluene” value is given as “◯”; the “Miscibility, Water” value is on record as “X”. In data set [2], the “Miscibility, Epoxy resin” value is listed as “◯ (dissolves up to 5 wt %)”; the “Miscibility, Nafion” value is “◯ (dissolves up to 5 wt %)”; the “Miscibility, PMMA” value is reported as “◯ (dissolves up to 5 wt %)”. In addition, the “Bound water (number of moles of bound water per mole of complex)” value in data set [3] turned out to be 0.00. In addition, the “Number of moles of bound water per mole of complex” value in data set [3] (setting [8]) was “water was not coordinated”. The Relative luminescence intensity in data set [4] (setting [7]) turned out to be 41.7. The Luminescence quantum yield in data set [4] is on record as 32.0%. In data set [5], the Relative luminescence intensity is on record as 710 and the Luminescence quantum yield is listed as 39.0%.

Consider `O=P(c1ccccc1)(c1ccccc1)c1ccccc1.O=P(c1ccccc1)(c1ccccc1)c1ccccc1.O=P(c1ccccc1)(c1ccccc1)c1ccccc1.O=P(c1ccccc1)(c1ccccc1)c1ccccc1.O=P(c1ccccc1)(c1ccccc1)c1ccccc1.O=P(c1ccccc1)(c1ccccc1)c1ccccc1.O=P(c1ccccc1)(c1ccccc1)c1ccccc1.O=P(c1ccccc1)(c1ccccc1)c1ccccc1.O=S(=O)([N-]S(=O)(=O)C(F)(F)F)C(F)(F)F.O=S(=O)([N-]S(=O)(=O)C(F)(F)F)C(F)(F)F.O=S(=O)([N-]S(=O)(=O)C(F)(F)F)C(F)(F)F.[Eu+3]` [Eu(PMS)3(TPPO)8], for which, in data set [1], the “Miscibility, Acetone” value is listed as “⊚”; the “Miscibility, Chloroform” value is given as “⊚”; the “Miscibility, Toluene” value was “◯”; the “Miscibility, Water” value is recorded as “X”. In data set [2], the “Miscibility, Epoxy resin” value was “◯ (dissolves up to 5 wt %)”; the “Miscibility, Nafion” value is on record as “◯ (dissolves up to 5 wt %)”; the “Miscibility, PMMA” value was “◯ (dissolves up to 5 wt %)”. In addition, the “Bound water (number of moles of bound water per mole of complex)” value in data set [3] stood at 0.18. In addition, the “Number of moles of bound water per mole of complex” value in data set [3] (after drying in vacuo at 140° C.) was found to be 0.18. The “Number of moles of bound water per mole of complex” value in data set [3] (setting [8]) is 2.93. This compound also gave a Relative luminescence intensity in data set [4] (setting [7]) of 45.1. In data set [4], this compound returned a Luminescence quantum yield of 5.6%. In addition, in data set [5], the Relative luminescence intensity was found to be 15466 and the Luminescence quantum yield came out at 19.0%.
